Assay results as given in patent publication US9701664B2, “Fused 1,4-dihydrodioxin derivatives as inhibitors of heat shock transcription factor 1” (Cancer Research Technology Limited, priority 2013, dated 2017).

System: HSP72 in SK-OV-3 cells
Assay: Cell-based ELISA (Cellisa) assay, SK-OV-3 cells: inhibition of 17-AAG-induced HSP72
Settings: SK-OV-3 cells (Examples 169-218)
Procedure: U2OS cells (5-8×10^4 cells/mL) or SK-OV-3 cells (5-8×10^4 cells/mL) were seeded into 96-well plates and incubated at 37° C. for 48 h. Compounds were then added at a range of concentrations and incubated for 1 h before addition of 17-AAG (250 nM). Cells were then incubated for 18 h. The medium was removed washed 2× with PBS and cells were then fixed with fixing solution (4% paraformaldehyde, 0.3% TritonX-100 in PBS) for 30 min at 4° C. The plates were then washed 2× with PBS before blocking with 5% milk for 30 min at 37° C. After washing the plates 4× with 0.1% Tween-20/deionised water, HSP72 antibody (SPA-810, Enzo Life) was added for 1.5 h at 37° C. Following 4× washes, the plates were incubated with europium-labelled anti-mouse antibody (0.6 ug/ml) in Delfia assay buffer (Perkin Elmer) for 1 h at 37° C. After washing the plates, Delfia enhancement solution was added, shaken for 10 min before reading in the Envision plate reader (Perkin-Elmer) with excitation at 340 nm and emission at 615 nm. The plates were washed again before protein determination using the bicinchoninic acid assay (BCA assay, Pierce Biotechnology). The europium counts were normalised for the amount of protein in each well. The 50% inhibitory concentration value of the compound was then calculated.

| Compound | IC50 (Homo sapiens) [nM] | IC50 [nM] |
| --- | --- | --- |
| CC(C)N1CCN(Cc2ccc3cc(C(=O)Nc4cc(NC(=O)c5ccc6c(c5)OCCO6)ccc4F)ccc3n2)[C@@H](C)C1 [Example 217, (S)—N-(5-(2,3-dihydrobenzo[b][1,4]dioxine-6-carboxamido)-2-fluorophenyl)-2-((4-isopropyl-2-methylpiperazin-1-yl)methyl)quinoline-6-carboxamide] | 137 | – |
| CC(C)N1CCN(Cc2ccc3cc(C(=O)Nc4cc(NC(=O)c5ccc6c(c5)OCCO6)ccc4F)ccc3n2)[C@H](C)C1 [Example 218, (R)—N-(5-(2,3-dihydrobenzo[b][1,4]dioxine-6-carboxamido)-2-fluorophenyl)-2-((4-isopropyl-2-methylpiperazin-1-yl)methyl)quinoline-6-carboxamide] | 80 | – |
| CC(C)N1CCN(Cc2ccc3cc(C(=O)Nc4cc(NC(=O)c5ccc6c(c5)OCCO6)ccc4Cl)ccc3n2)CC1 [Example 197, N-(2-chloro-5-(2,3-dihydrobenzo[b][1,4]dioxine-6-carboxamido)phenyl)-2-((4-isopropylpiperazin-1-yl)methyl)quinoline-6-carboxamide] | 43 | – |
| 2-((4-(tert-butyl)piperazin-111)methyl)-N-(5-(2,3-dihydrobenzo[b][1,4]dioxine-6-carboxamido)-2-fluorophenyl)quinoline-6-carboxamide [Example 177] | – | 70 |
| CC1(C)CN(Cc2ccc3cc(C(=O)Nc4cc(NC(=O)c5ccc6c(c5)OCCO6)ccc4F)ccc3n2)C1 [Example 183, N-(5-(2,3-dihydrobenzo[b][1,4]dioxine-6-carboxamido)-2-fluorophenyl)-2-((3,3-dimethylazetidin-1-yl)methyl)quinoline-6-carboxamide] | 131 | – |
| CC1CN(Cc2ccc3cc(C(=O)Nc4cc(NC(=O)c5ccc6c(c5)OCCO6)ccc4F)ccc3n2)C1 [Example 182, N-(5-(2,3-dihydrobenzo[b][1,4]dioxine-6-carboxamido)-2-fluorophenyl)-2-((3-methylazetidin-1-yl)methyl)quinoline-6-carboxamide] | 232 | – |
| Cc1ccc(NC(=O)c2ccc3c(c2)OCCO3)cc1NC(=O)c1ccc2nc(CN3CCN(C(C)C)CC3)ccc2c1 [Example 202, N-(5-(2,3-dihydrobenzo[b][1,4]dioxine-6-carboxamido)-2-methylphenyl)-2-((4-isopropylpiperazin-1-yl)methyl)quinoline-6-carboxamide] | 61 | – |
| C=Cc1ccc(NC(=O)c2ccc3c(c2)OCCO3)cc1NC(=O)c1ccc2nc(C)ccc2c1 [Example 210, N-(5-(2,3-dihydrobenzo[b][1,4]dioxine-6-carboxamido)-2-vinylphenyl)-2-methylquinoline-6-carboxamide] | 419 | – |
| 2-((4-(sec-butyl)piperazin-111)methyl)-N-(2-chloro-5-(2,3-dihydrobenzo[b][1,4]dioxine-6-carboxamido)phenyl)quinoline-6-carboxamide [Example 193] | – | 66 |
| Cc1ccc(NC(=O)c2ccc3c(c2)OCCO3)cc1NC(=O)c1ccc2nc(CN3CC[C@H](F)C3)ccc2c1 [Example 207, (S)—N-(5-(2,3-dihydrobenzo[b][1,4]dioxine-6-carboxamido)-2-methylphenyl)-2-((3-fluoropyrrolidin-1-yl)methyl)quinoline-6-carboxamide] | 80 | – |
| O=C(Nc1ccc(Cl)c(NC(=O)c2ccc3nc(CN4CCNCC4)ccc3c2)c1)c1ccc2c(c1)OCCO2 [Example 192, N-(2-chloro-5-(2,3-dihydrobenzo[b][1,4]dioxine-6-carboxamido)phenyl)-2-(piperazin-1-ylmethyl)quinoline-6-carboxamide] | 128 | – |
| CCN1CCN(Cc2ccc3cc(C(=O)Nc4cc(NC(=O)c5ccc6c(c5)OCCO6)ccc4Br)ccc3n2)CC1 [Example 215, N-(2-bromo-5-(2,3-dihydrobenzo[b][1,4]dioxine-6-carboxamido)phenyl)-2-((4-ethylpiperazin-1-yl)methyl)quinoline-6-carboxamide] | 39 | – |
| O=C(Nc1ccc(F)c(NC(=O)c2ccc3nc(CN4CCCCC4)ccc3c2)c1)c1ccc2c(c1)OCCO2 [Example 172, N-(5-(2,3-dihydrobenzo[b][1,4]dioxine-6-carboxamido)-2-fluorophenyl)-2-(piperidin-1-ylmethyl)quinoline-6-carboxamide] | 675 | – |
| O=C(Nc1ccc(F)c(NC(=O)c2ccc3nc(OCCCN4CCCC4)ccc3c2)c1)c1ccc2c(c1)OCCO2 [Example 187, N-(5-(2,3-dihydrobenzo[b][1,4]dioxine-6-carboxamido)-2-fluorophenyl)-2-(3-(pyrrolidin-1-yl)propoxy)quinoline-6-carboxamide] | 10 | – |
| O=C(Nc1ccc(F)c(NC(=O)c2ccc3nc(CN4CCNCC4)ccc3c2)c1)c1ccc2c(c1)OCCO2 [Example 174, N-(5-(2,3-dihydrobenzo[b][1,4]dioxine-6-carboxamido)-2-fluorophenyl)-2-(piperazin-1-ylmethyl)quinoline-6-carboxamide] | 78 | – |
| C[C@@H]1CCCN1Cc1ccc2cc(C(=O)Nc3cc(NC(=O)c4ccc5c(c4)OCCO5)ccc3F)ccc2n1 [Example 176, (R)—N-(5-(2,3-dihydrobenzo[b][1,4]dioxine-6-carboxamido)-2-fluorophenyl)-2-((2-methylpyrrolidin-1-yl)methyl)quinoline-6-carboxamide] | 313 | – |
| CC(C)(C)N1CCN(Cc2ccc3cc(C(=O)Nc4cc(NC(=O)c5ccc6c(c5)OCCO6)ccc4Cl)ccc3n2)CC1 [Example 191, 2-((4-(tert-butyl)piperazin-1-yl)methyl)-N-(2-chloro-5-(2,3 dihydrobenzo[b][1,4]dioxine-6-carboxamido)phenyl)quinoline-6-carboxamide] | 134 | – |
| O=C(Nc1ccc(F)c(NC(=O)c2ccc3nc(OCCN4CCCC4)ccc3c2)c1)c1ccc2c(c1)OCCO2 [Example 188, N-(5-(2,3-dihydrobenzo[b][1,4]dioxine-6-carboxamido)-2-fluorophenyl)-2-(2-(pyrrolidin-1-yl)ethoxy)quinoline-6-carboxamide] | 57 | – |
| O=C(Nc1ccc(Cl)c(NC(=O)c2ccc3nc(CN4CCN(C5CC5)CC4)ccc3c2)c1)c1ccc2c(c1)OCCO2 [Example 194, N-(2-chloro-5-(2,3-dihydrobenzo[b][1,4]dioxine-6-carboxamido)phenyl)-2-((4-cyclopropylpiperazin-1-yl)methyl)quinoline-6-carboxamide] | 213 | – |
| CCN1CCN(Cc2ccc3cc(C(=O)Nc4cc(NC(=O)c5ccc6c(c5)OCCO6)ccc4F)ccc3n2)[C@H](C)C1 [Example 212, (R)—N-(5-(2,3-dihydrobenzo[b][1,4]dioxine-6-carboxamido)-2-fluorophenyl)-2-((4-ethyl-2-methylpiperazin-1-yl)methyl)quinoline-6-carboxamide] | 85 | – |
| Cc1ccc(NC(=O)c2ccc3c(c2)OCCO3)cc1NC(=O)c1ccc2nc(CN3CCCC3C)ccc2c1 (centres unmarked) [Example 205, N-(5-(2,3-dihydrobenzo[b][1,4]dioxine-6-carboxamido)-2-methylphenyl)-2-((2-methylpyrrolidin-1-yl)methyl)quinoline-6-carboxamide] | 65 | – |
| CCN1CCN(C(C)c2ccc3cc(C(=O)Nc4cc(NC(=O)c5ccc6c(c5)OCCO6)ccc4F)ccc3n2)CC1 (centres unmarked) [Example 214, N-(5-(2,3-dihydrobenzo[b][1,4]dioxine-6-carboxamido)-2-fluorophenyl)-2-(1-(4-ethylpiperazin-1-yl)ethyl)quinoline-6-carboxamide] | 957 | – |
| CC1CN(Cc2ccc3cc(C(=O)Nc4cc(NC(=O)c5ccc6c(c5)OCCO6)ccc4Cl)ccc3n2)C1 [Example 200, N-(2-chloro-5-(2,3-dihydrobenzo[b][1,4]dioxine-6-carboxamido)phenyl)-2-((3-methylazetidin-1-yl)methyl)quinoline-6-carboxamide] | 84 | – |
